Consider twelve molecules from ChEMBL document CHEMBL1130686, “A new series of C3-aza carbocyclic influenza neuraminidase inhibitors: synthesis and inhibitory activity” (Bioorg Med Chem Lett, 1998).

What is called IC50 is the point on the concentration scale where inhibition reaches its midpoint. A high value points to a need for much substance.

In this assay the target is Neuraminidase (Influenza A virus (A/Puerto Rico/8/1934(H1N1)), UniProt P03468). Description: Inhibition of neuraminidase of influenza A.

The molecule `CCCN[C@@H]1C=C(C(=O)O)C[C@H](N)[C@H]1NC(C)=O` showed an IC50 of 0.2 µM.

As for `CCCN(CC)[C@@H]1C=C(C(=O)O)C[C@H](N)[C@H]1NC(C)=O`, 0.09 µM corresponded to half-maximal inhibition (IC50).

In the case of `CCC(CC)N(C)[C@@H]1C=C(C(=O)O)C[C@H](N)[C@H]1NC(C)=O`, the midpoint of inhibition, the IC50, lay at 0.006 µM.

`CCC(=O)N[C@@H]1C=C(C(=O)O)C[C@H](N)[C@H]1NC(C)=O` displayed an IC50 of 2.7 µM.

On to `CCCCN(CC)[C@@H]1C=C(C(=O)O)C[C@H](N)[C@H]1NC(C)=O`, for which the IC50 was determined as 0.085 µM.

Turning to `CC(=O)N[C@H]1[C@H](N(C)CCc2ccccc2)C=C(C(=O)O)C[C@@H]1N`, it took 0.1 µM to reach half-maximal inhibition (IC50).

Molecule `CC(=O)N[C@@H]1[C@@H](N)CC(C(=O)O)=C[C@H]1NC(=O)C(C)C` came in with an IC50 of 6.4 µM.

For the molecule `CC(=O)N[C@H]1[C@H](N(C)C2CCCCC2)C=C(C(=O)O)C[C@@H]1N`, the IC50 is 0.2 µM.

Consider `CCC(CC)N[C@@H]1C=C(C(=O)O)C[C@H](N)[C@H]1NC(C)=O`, for which half-maximal inhibition (IC50) required 0.011 µM.

As to `CCC(CC)C(=O)N[C@@H]1C=C(C(=O)O)C[C@H](N)[C@H]1NC(C)=O`, the IC50 worked out at 4 µM.

The molecule `CCCN(CCC)[C@@H]1C=C(C(=O)O)C[C@H](N)[C@H]1NC(C)=O` yielded an IC50 of 0.012 µM.

`CCCCN(C)[C@@H]1C=C(C(=O)O)C[C@H](N)[C@H]1NC(C)=O` displayed an IC50 of 0.18 µM.
